Each structure is given as a SMILES string. Like-named read-outs stand apart in the source and are kept apart here.

In test [1] the test system is TNFα production in RAW 264.7 macrophage cell line. The experiment in a line: Mouse TNF alpha quantification assay (LPS-stimulated RAW 264.7, ELISA). The class given is cell-based. The settings on record: RAW264.7, LPS-stimulated RAW 264.7 macrophage cell line, read-out: TNF-α % Inhibition at 30 μM.
Test [2] concerns IL6 production in RAW 264.7 macrophage cell line. In words: Mouse IL6 quantification assay (LPS-stimulated RAW 264.7, ELISA). The class given is cell-based. Particulars: RAW264.7, LPS-stimulated RAW 264.7 macrophage cell line, read-out: IL-6 % Inhibition at 30 μM. In general terms: An ELISA detects its analyte on a solid surface through an enzyme-linked reagent.
In test [3] the target is KRas G12D/Q61H double mutant (Homo sapiens (Human), UniProt P01116, G12D/Q61H). In words: Ras GTP binding domain inhibition assay (labeled GTP). As for the experimental part: (§1) Buffer-I: • 50 mM Tris, pH 7.5 • 150 mM NaCl (optional) • 1 mM MgCl2 • 1 mM DTT. • KRas G12D mutant protein was expressed as a His-tagged protein. Purified His-KRas G12D protein was diluted in buffer-I to a final concentration of 3-10 μg/ml. • 200 μl of the diluted His-KRas G12D protein was added to a nickel coated 96 well plate and incubated overnight at 4° C. • The next day, wells were washed 3× in 200 μl of Buffer-I. • Then 200 μl of Buffer-I were added to each well in the presence of 1% DMSO. • Tested compounds were added to the protein-coated wells at a concentration of 20 μM, and incubated for 3 hours at room temperature. While performing IC50 measurements a serial dilution of all tested concentrations was prepared.
(§2) Then 22 μl of Cy3-GTP or Cy5-GTP was added to each well. The labeled GTP was incubated for 45 min. at room temperature. • Following GTP incubation, wells were washed 3× in Buffer-I, and 200 μl of Buffer-I were added to each well. • Following washes, the amount of bound labeled-GTP was measured with an Eppendorf AF2200 plate reader.
(§3) By substituting KRas G12D mutant protein with KRas G12C mutant, KRas wild type, KRas Q61H mutant, KRas G12D/Q61H double mutant or KRas G12C/Q61H double mutant under the assay conditions described above, KRas G12C mutant KRas wild type, KRas Q61H mutant, KRas G12D/Q61H double mutant and KRas G12C/Q61H double mutant inhibition, respectively, were each determined.

The target of test [4] is KRas G12D mutant protein (Homo sapiens (Human), UniProt P01116, G12D). The description is as above. As for the experimental part:
The following method was developed as specific assay for KRas G12D mutant protein.
as §1, §2

Test [5] concerns the target KRas G12C mutant (Homo sapiens (Human), UniProt P01116, G12C). The description is as above. As for the experimental part:
as §1, §2, §3

The target in test [6] is KRas wild type (Homo sapiens (Human), UniProt P01116). The description is as above. As for the experimental part: as §1, §2, §3
Test [7] concerns the target KRas Q61H mutant (Homo sapiens (Human), UniProt P01116, Q61H). The test is described as above. Particulars: 20 μM compound. As for the experimental part: as §1, §2, §3
Setting [8] is: 20 μM, read-out: KRas G12D Q61H % Inh.
Where [9] appears, read: compound at 20 μM, read-out: % Inhibition at 20 μM, KRas G12D Q61H.
[10] abbreviates: 20 μM compound, read-out: % Inhibition at 20 μM, KRas G12D Q61H.

Sequence of KRas wild type (P01116-2 other isoform, or with tags, fused parts or gaps): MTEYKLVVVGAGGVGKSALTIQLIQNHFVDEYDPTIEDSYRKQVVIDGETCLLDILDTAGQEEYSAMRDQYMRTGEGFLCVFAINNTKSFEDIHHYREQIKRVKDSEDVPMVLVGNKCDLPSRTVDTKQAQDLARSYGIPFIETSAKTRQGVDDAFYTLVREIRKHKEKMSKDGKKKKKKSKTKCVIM
Sequence of KRas G12C mutant (P01116-2 other isoform, or with tags, fused parts or gaps G12C): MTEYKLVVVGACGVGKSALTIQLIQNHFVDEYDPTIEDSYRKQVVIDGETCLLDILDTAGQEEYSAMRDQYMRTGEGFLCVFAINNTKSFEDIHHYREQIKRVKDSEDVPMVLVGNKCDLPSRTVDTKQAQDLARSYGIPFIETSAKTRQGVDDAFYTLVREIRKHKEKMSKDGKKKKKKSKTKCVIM
Sequence of KRas G12D mutant protein (P01116-2 other isoform, or with tags, fused parts or gaps G12D): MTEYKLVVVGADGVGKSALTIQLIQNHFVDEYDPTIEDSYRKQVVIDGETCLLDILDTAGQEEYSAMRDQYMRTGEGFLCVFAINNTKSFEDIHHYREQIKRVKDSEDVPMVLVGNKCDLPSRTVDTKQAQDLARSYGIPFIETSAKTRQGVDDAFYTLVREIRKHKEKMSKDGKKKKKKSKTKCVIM
Sequence of KRas G12D/Q61H double mutant (P01116-2 other isoform, or with tags, fused parts or gaps G12D/Q61H): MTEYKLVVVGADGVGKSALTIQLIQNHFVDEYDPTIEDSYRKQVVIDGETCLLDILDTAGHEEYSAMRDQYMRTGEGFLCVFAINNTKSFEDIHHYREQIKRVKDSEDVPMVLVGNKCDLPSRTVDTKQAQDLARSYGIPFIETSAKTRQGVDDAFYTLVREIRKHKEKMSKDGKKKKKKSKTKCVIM
Sequence of KRas Q61H mutant (P01116-2 other isoform, or with tags, fused parts or gaps Q61H): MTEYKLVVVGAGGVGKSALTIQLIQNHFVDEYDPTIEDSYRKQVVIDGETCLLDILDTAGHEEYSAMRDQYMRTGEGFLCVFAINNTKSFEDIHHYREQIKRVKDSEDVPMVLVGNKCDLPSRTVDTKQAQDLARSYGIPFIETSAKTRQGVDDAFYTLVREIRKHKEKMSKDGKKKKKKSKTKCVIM

In the case of `O=C(CCc1cnn(-c2ccccc2)c1)Nc1nnc(-c2ccccn2)[nH]1`, the inhibition at 30 µM in test [1] lay within 1 to 25%; in test [2], 26 to 50%. `CC(C)C(=O)Nc1nc(CC(=O)Nc2nnc(-c3ccccc3)[nH]2)cs1`: the values for the inhibition at 30 µM in test [1] and in test [2] were 1 to 25% and 0%, respectively. The like results for `O=C(Nc1nnc(-c2ccccn2)s1)c1csc(-c2ccco2)n1` were, in that order, 0% and 51 to 75%. The like results for `O=C(Nc1nc(-c2ccccn2)cs1)c1cccc(F)c1` were, in that order, 0% and 1 to 25%. The like results for `COc1cccc(C(=O)Nc2nc(-c3ccccn3)cs2)c1` were, in that order, 0% and 1 to 25%. Turning to `COc1ccc(C(=O)Nc2nc(-c3ccccn3)cs2)cn1`, the inhibition at 30 µM in test [1] is 51 to 75%; in test [2] it was 76 to 100%. For the compound `O=C(c1csc2c(O)nc(-c3ccccn3)nc12)N1CCN(c2ccccc2)CC1`, the inhibition at 30 µM is 51 to 75% in test [1] and 76 to 100% in test [2]. The like results for `Brc1csc2nc(-c3ccccn3)nc(Br)c12` were, in that order, 76 to 100% and 76 to 100%. On the same counts, the results for `COc1cc(CNc2nc(-c3ccccn3)nc3scc(-c4ccccc4)c23)ccc1OCC(N)=O` are 76 to 100% and 76 to 100%.

For the compound `CN(CC(=O)N1CCOCC1)c1nc(-c2ccccn2)nc2scc(-c3ccccc3)c12`, the inhibition at 30 µM in test [1] and in test [2] was 1 to 25% in each case. For `COc1cc(CCNC(=O)c2csc3nc(-c4ccccn4)nc(N4CCOCC4)c23)ccn1`, the inhibition at 30 µM in test [1] is 0%; in test [2], 1 to 25%. `CC(C)(C(=O)Nc1cc(-c2ccccn2)nc2sccc12)c1ccc(C#N)cc1`: the inhibition at 30 µM in test [1] is 1 to 25%; in test [2], 76 to 100%. `O=C(c1csc2c(O)nc(-c3ccccn3)nc12)N1CCNC(Cc2cccc(F)c2)C1` (centres unmarked): the inhibition at 30 µM fell in the range of 1 to 25% in test [1] and 26 to 50% in test [2]. Regarding `O=C(NCCc1cnc(O)cn1)c1csc2nc(-c3ccccn3)nc(N3CCS(=O)(=O)CC3)c12`, the values for the inhibition at 30 µM in test [1] and in test [2] were 0% and 51 to 75%, respectively. `CC(C)COc1ccc(-c2csc3c(O)nc(-c4ccccn4)nc23)nc1`: the figures for the inhibition at 30 µM in test [1] and in test [2] were 51 to 75% and 76 to 100%, respectively. Turning to `Nc1nc(-c2ccccn2)nc2scc(Br)c12`, the inhibition at 30 µM is 0% in test [1] and 1 to 25% in test [2].

On to `Nc1nc(-c2ccccn2)nc2c(-c3ccccn3)csc12`, for which the inhibition at 30 µM in test [1] and in test [2] was 76 to 100% in each case. Consider `CN(C)Cc1cc(F)cc(-c2csc3c(O)nc(-c4ccccn4)nc23)c1`, for which the figures for the inhibition at 30 µM in test [1] and in test [2] were 51 to 75% and 76 to 100%, respectively. In the case of `COCCNc1nc(-c2cccc(C)n2)nc2sc(-c3ccccc3)c(-c3ccccc3)c12`, the inhibition at 30 µM in test [1] and in test [2] was 26 to 50% each time. `CC(C)COc1ccc(-c2csc3c(O)nc(-c4nccn4C)nc23)cn1`: the inhibition at 30 µM in test [1] and in test [2] was 76 to 100% in each case. For the compound `CC(C)c1ccc(NC(=O)CCc2c(O)cc(-c3ccccn3)nc2O)cc1`, the inhibition at 20 µM in test [3] (setting [8]) lay in the range of 51 to 75%. Still for that read-out and setting: the result for `CCN(CC)S(=O)(=O)c1cc(C)c(C)c(NC(=O)CCc2c(C)cc(-c3ccccn3)nc2O)c1` reads 51 to 75%. On to `CS(=O)(=O)CCCC(=O)N1CCCc2c(O)nc(-c3ccccn3)nc21`, for which, in test [3] (20 μM), the “KRas G12D Q61H % Inh.” value is on record as “C (C = 51-75% inhibition)”. On to `O=C(CCCc1cccnc1)N1CCCc2c(O)nc(-c3ccccn3)nc21`, for which the inhibition at 20 µM fell in the range of 51 to 75% in test [4] (compound at 20 μM), 51 to 75% in test [5] (compound at 20 μM), 51 to 75% in test [3] (setting [9]) and 25 to 50% in test [6] (compound at 20 μM). With `O=C(c1csc2c(O)nc(-c3ccccn3)nc12)N1CCN(c2cccnc2)CC1`, the inhibition at 20 µM in test [4] (compound at 20 μM) lay within 51 to 75%; in test [5] (compound at 20 μM), 25 to 50%; in test [3] (setting [9]) it was 51 to 75%; in test [6] (compound at 20 μM) it was 76 to 100%.

Take `COc1ccc(CCOC(=O)Nc2ccnc(-c3ccccn3)n2)cn1`: the inhibition at 20 µM in test [3] (setting [9]) was 25 to 50%.

Turning to `Cc1cc2nc(-c3ccccn3)nc(O)c2s1`, the inhibition at 20 µM was in the range of 1 to 25% in test [5] (compound at 20 μM) and 25 to 50% in test [6] (compound at 20 μM). On to `Oc1nc(-c2ccccn2)nc2c(-c3ccccc3)csc12`, for which, in test [5] (compound at 20 μM), the inhibition at 20 µM was 1 to 25%. As for `COc1ccc(CCNC(=O)c2cc(S(=O)(=O)N3CCCCCC3)ccc2OC)cc1OC`, the inhibition at 20 µM in test [3] (setting [9]) lay within 25 to 50%.

For `CCOC(=O)c1sc(N(C2CC2)S(=O)(=O)c2cc(F)ccc2F)nc1C`, the inhibition at 20 µM in test [3] (setting [9]) was 25 to 50%. The same measure, in the same setting: the result for `Cc1sc2nc(-c3cnccn3)[nH]c(=O)c2c1-c1ccccc1` reads 25 to 50%; that for `N#Cc1ccc(C2CCCN2c2ccco2)cc1C(F)(F)F` (centres unmarked), 1 to 25%. For `Cc1ccc(OCc2nnc(SCC3CCCOC3)o2)cc1` (centres unmarked), the inhibition at 20 µM in test [3] (setting [9]) was in the range of 1 to 25%.

For `CC(NC(=O)c1csc(-c2ccccc2)n1)c1ccccn1` (centres unmarked), the inhibition at 20 µM in test [3] (setting [10]) was 1 to 25%. Turning to `O=C(NCC(F)(F)F)c1ccc(CN(Cc2cc(Cl)cc3c2OCOC3)C2CC2)cc1`, the inhibition at 20 µM in test [3] (setting [10]) was in the range of 25 to 50%. As for `CCOc1cc(CN(C(=O)CCc2nc(-c3ccsc3)no2)C2CC2)ccc1OC(F)F`, in test [3] (setting [10]), the inhibition at 20 µM is 25 to 50%. Consider `COCc1ccc(C2CCCN2c2ccc(C#N)c(C(F)(F)F)c2)o1` (centres unmarked), for which the inhibition at 20 µM in test [3] (setting [10]) lay in the range of 25 to 50%. On the same count and under the same terms, next, `CC(C)c1cnc(CN2CC(C)N(Cc3ncc(C(C)C)o3)c3ccccc32)o1` (centres unmarked): 25 to 50%. On the same count and under the same terms, the result for `COCCN(Cc1ccccc1)CC(O)OCC(c1ccc(OC)cc1)c1ccc(OC)cc1` (centres unmarked) reads 1 to 25%; that for `Cc1cc(OC(C)COc2ccc(Oc3ccccc3)cc2)ncc1C(F)(F)F` (centres unmarked), 51 to 75%; that for `COc1cccc(-c2nc(C(=O)N3CCC(c4ccccc4)CC3)cs2)c1OC`, 25 to 50%. The same measure, in the same setting: next, `Cc1ccccc1N(CC(=O)NCC1CCCCCCC1)S(C)(=O)=O`: 1 to 25%. For the compound `OCC1(Cc2ccccc2)CCCN1c1nc(-c2ccccc2)nc2c1CCC2` (centres unmarked), in test [3] (setting [10]), the inhibition at 20 µM fell in the range of 25 to 50%.

As to `Oc1nc(-c2ccccn2)nc2c(C3CCCC3)csc12`, the “% Inhibition at 20 μM, KRas Q61H” value in test [7] is recorded as “D (D = 76-100% inhibition)”. In the case of `Oc1nc(-c2ccccn2)nc(Oc2cccc(C(F)(F)F)c2)c1O`, the “% Inhibition at 20 μM, KRas G12C” value in test [5] (20 μM compound) is reported as “B (B = 25-50% inhibition)”. As to `COCCNc1nc(-c2nccn2C)nc2sc(-c3ccccc3)c(-c3ccccc3)c12`, the inhibition at 20 µM in test [4] (20 μM compound) turned out to be 0%. Turning to `Cc1sc2c(O)nc(-c3nccn3C)nc2c1-c1ccccc1Cl`, the inhibition at 20 µM was in the range of 1 to 25% in test [5] (20 μM compound) and 25 to 50% in test [6] (20 μM compound). Turning to `COCCNc1nc(-c2nccn2C)nc2sc(-c3ccccc3)c(-c3cccnc3)c12`, the inhibition at 20 µM in test [4] (20 μM compound) is 25 to 50%; in test [5] (20 μM compound) it was 25 to 50%; in test [6] (20 μM compound), 51 to 75%. Turning to `COc1ccccc1OCC(=O)Nc1nnc(-c2ccccn2)[nH]1` [drawing 2004], the inhibition at 30 µM is 0% in test [1] and 26 to 50% in test [2]. The like results for `CCC(C)c1csc2c(O)nc(-c3ccccn3)nc12` (centres unmarked) [drawing 2332] were, in that order, 1 to 25% and 26 to 50%. As for `COc1ccccc1OCC(=O)Nc1nnc(-c2ccccn2)[nH]1` [drawing 2552], the inhibition at 20 µM in test [3] (setting [8]) lay in the range of 51 to 75%.

The values are drawn from patent publication US11000515B2, “Compounds that interact with the Ras superfamily for the treatment of cancers, inflammatory diseases, rasopathies, and fibrotic disease” (Shy Therapeutics LLC, priority 2017, dated 2021).
